Data taken from ChEMBL document CHEMBL1201862, “PubChem BioAssay data set” (2004).
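Five compound concentrations were applied to cells in 96-well plates for 48 hours; endpoints were derived by simple linear interpolation of the resulting dose-response curve. GI50 = concentration required for 50% inhibition of growth.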 Activity calls are given as the source filed them. Cut-off read from the data, not from the text of the source: active = GI50 up to about 1.1 µM and inactive = higher.

Tests used:
Test in all cases: NCI-60 cell line screen, 48 h
[1] = tested on: 786-0
[2] = tested on: ACHN
[3] = tested on: COLO 205
[4] = tested on: IGROV-1
[5] = tested on: K562
[6] = tested on: NCI-H460
[7] = tested on: NCI-H522
[8] = tested on: SF-295
[9] = tested on: SF-539
[10] = tested on: SK-MEL-28
[11] = tested on: SNB-75
[12] = tested on: UACC-62
[13] = tested on: UO-31
[14] = tested on: OVCAR-5
[15] = tested on: SR

Measured: GI50

C[C@@H](N[C@H]1CCC[C@@H]1O)c1ccccc1.C[C@@H](N[C@H]1CCC[C@H]1O)c1ccccc1
inactive: [1] 70.1 µM | [2] > 100 µM | [3] 75.7 µM | [4] > 100 µM | [5] 44.9 µM | [6] 37.8 µM | [7] > 100 µM | [8] 40.4 µM | [9] > 100 µM | [10] 58.3 µM | [11] > 100 µM | [12] 75 µM | [13] 50.5 µM

COc1ccc2oc(-c3ccncc3)cc(=O)c2c1
inactive: [1] > 100 µM | [2] > 100 µM | [3] > 100 µM | [4] 82 µM | [5] > 100 µM | [6] > 100 µM | [14] > 100 µM | [8] > 100 µM | [10] > 100 µM | [11] > 100 µM | [12] 65.2 µM | [13] > 100 µM

NNC(=S)N/N=C(\CCCC(=O)NCCc1ccccc1)CC(=O)c1ccccc1
inactive: [1] > 100 µM | [2] > 100 µM | [3] > 100 µM | [4] > 100 µM | [6] > 100 µM | [7] > 100 µM | [14] > 100 µM | [8] > 100 µM | [9] > 100 µM | [10] > 100 µM | [15] > 100 µM | [12] > 100 µM | [13] > 100 µM

Nc1c(-c2nc3ccccc3[nH]2)sc(=S)n1-c1ccc(Cl)cc1
inactive: [1] 19.9 µM | [2] 17.7 µM | [3] 35.3 µM | [4] 28.6 µM | [5] 32.8 µM | [7] 22.4 µM | [14] > 100 µM | [8] 22.9 µM | [9] 20.1 µM | [10] 33.7 µM | [11] 27.7 µM | [12] 16.1 µM | [13] 29.6 µM

Cc1cc(N(CCC#N)CCC#N)ccc1/C=C/C(=O)Nc1ccccc1Cl
inactive: [1] > 100 µM | [2] > 100 µM | [3] > 100 µM | [4] > 100 µM | [5] > 100 µM | [6] > 100 µM | [7] > 100 µM | [14] > 100 µM | [8] > 100 µM | [9] > 100 µM | [10] > 100 µM | [11] > 100 µM | [12] > 100 µM | [13] > 100 µM

C[C@]12C/C(=C/O)C(=O)C(O)=C1CC[C@@H]1C2CC[C@@]2(C)C1CC[C@@H]2O (stereo partly specified)
inactive: [1] 33.3 µM | [2] 27.8 µM | [3] 21.2 µM | [4] 21.7 µM | [5] 22.3 µM | [6] 21.8 µM | [7] 15.6 µM | [14] 21 µM | [8] 26.7 µM | [9] 18.7 µM | [10] 21.5 µM | [11] 20.4 µM | [12] 16.5 µM | [13] 16.3 µM

COc1ccc2c(c1O)C(=O)C(CCC(=O)O)CC2 (stereo unspecified)
inactive: [1] > 100 µM | [2] > 100 µM | [3] > 100 µM | [4] > 100 µM | [6] > 100 µM | [8] 30.9 µM | [9] > 100 µM | [10] > 100 µM | [11] > 100 µM | [12] > 100 µM

Cc1cccc(=O)c([O-])c1.Cc1cccc(=O)c([O-])c1.[Bi+3].[Cl-]
inactive: [1] 13.7 µM | [2] 7.31 µM | [4] 12.3 µM | [5] 4.46 µM | [6] 4.32 µM | [7] 2.03 µM | [14] 14.9 µM | [8] 10.4 µM | [9] 12 µM | [10] 5.94 µM | [11] 10 µM | [12] 7.96 µM | [13] 11.5 µM

O=C(NCCc1ccccc1)C1C(=O)C(=O)N(CCc2ccccc2)C1=O (stereo unspecified)
inactive: [1] > 100 µM | [2] > 100 µM | [4] > 100 µM | [5] > 100 µM | [7] > 100 µM | [8] > 100 µM | [9] > 100 µM | [10] > 100 µM | [11] > 100 µM | [15] > 100 µM | [12] > 100 µM | [13] > 100 µM

NC(=O)c1ncn2c1NCC1OC2C(O)C1O (stereo unspecified)
inactive: [1] > 100 µM | [2] > 100 µM | [3] > 100 µM | [4] > 100 µM | [5] > 100 µM | [7] > 100 µM | [14] > 100 µM | [8] > 100 µM | [9] > 100 µM | [10] > 100 µM | [11] > 100 µM | [15] > 100 µM | [12] > 100 µM | [13] > 100 µM

CC(=O)N(C)C=C1C(=O)N(C)C(=O)N(C)C1=O
inactive: [1] > 100 µM | [2] > 100 µM | [5] > 100 µM | [6] > 100 µM | [14] > 100 µM | [8] > 100 µM | [9] > 100 µM | [10] > 100 µM | [11] > 100 µM | [15] > 100 µM | [12] > 100 µM | [13] > 100 µM

CC(C)CCCC(C)[C@H]1CCC2[C@@H]3CCC4Nc5nocc5C[C@]4(C)C3CC[C@@]21C (stereo partly specified)
inactive: [1] 11.4 µM | [2] 14.7 µM | [3] 6.14 µM | [4] 25.6 µM | [5] 15.8 µM | [6] 20 µM | [7] 3.15 µM | [14] > 10 µM | [8] 19.3 µM | [9] 18.9 µM | [11] 15.6 µM | [12] 22.5 µM | [13] 14.6 µM

O=P(Nc1ccccc1)(Oc1ccccc1)N(CCCl)CCCl (stereo unspecified)
inactive: [2] > 100 µM | [3] > 100 µM | [4] > 100 µM | [5] > 100 µM | [7] 14 µM | [14] > 100 µM | [8] 69.3 µM | [9] > 100 µM | [10] > 100 µM | [11] > 100 µM | [15] > 100 µM | [12] 89.1 µM | [13] 12.4 µM

COc1ccc(OC)c(CC(C)N)c1 (stereo unspecified)
inactive: [1] > 100 µM | [2] > 100 µM | [3] > 100 µM | [4] > 100 µM | [5] > 100 µM | [6] > 100 µM | [7] > 100 µM | [8] > 100 µM | [9] > 100 µM | [10] > 100 µM | [11] > 100 µM | [12] > 100 µM | [13] > 100 µM

COc1ccc(C[C@H](N)C(=O)N2C[C@@H](CO)C[C@@H](n3ccc(=O)[nH]c3=O)C2)cc1
inactive: [2] > 100 µM | [3] > 100 µM | [4] > 100 µM | [5] > 100 µM | [6] > 100 µM | [7] > 100 µM | [14] > 100 µM | [9] > 100 µM | [10] > 100 µM | [15] > 100 µM | [12] > 100 µM | [13] > 100 µM
